The test system of test [1] is α7 nAChRs. The note with it: read-out: IC50, displacement of [^3H]MLA binding; cited from earlier work.
The target of test [2] is α7 nAChRs (Mus musculus, UniProt P49582). The note with it: in vivo. As to the method:
In the other group of mice, a blocking experiment to determine the α7 nAChRs-specific regional brain uptake of the tracers was carried out. Each tracer (2 MBq/0.055–0.096 nmol) was co-injected with each of the following blockers into mice, and 15 ([^11C]A-582941) or 30 ([^11C]A-844606) min later the mice were killed (n = 5) and the tissue uptake of ^11C was expressed as the %ID/g. […] Each blocker was dissolved in 1N HCl to 40 mg/ml and diluted up to 0.4 mg/ml with saline. The co-injected dose was 1 mg/kg. In the control mice the same amount of 0.01 N HCl in saline was co-injected.

Test [3] concerns α4β2 nAChRs. The note with it: read-out: IC50, displacement of [^3H]cytisine binding to α4β2 nAChRs; cited from earlier work.

Chain of α7 nAChRs (Mus musculus, UniProt P49582) (P49582 23-502): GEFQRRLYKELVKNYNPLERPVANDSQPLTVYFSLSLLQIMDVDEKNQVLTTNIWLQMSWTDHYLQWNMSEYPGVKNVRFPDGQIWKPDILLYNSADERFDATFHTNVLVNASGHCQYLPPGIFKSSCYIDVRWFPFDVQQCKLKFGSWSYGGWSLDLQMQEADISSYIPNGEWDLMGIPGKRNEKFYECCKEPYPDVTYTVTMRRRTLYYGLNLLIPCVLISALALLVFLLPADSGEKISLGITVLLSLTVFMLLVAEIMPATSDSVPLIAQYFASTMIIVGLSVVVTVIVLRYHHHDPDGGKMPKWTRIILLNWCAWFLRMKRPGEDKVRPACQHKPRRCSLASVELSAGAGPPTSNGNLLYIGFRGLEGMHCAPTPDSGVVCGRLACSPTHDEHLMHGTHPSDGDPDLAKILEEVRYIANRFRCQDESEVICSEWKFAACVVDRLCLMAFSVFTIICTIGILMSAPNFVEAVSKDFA

As to `CN1CC2CN(c3ccc4oc5ccccc5c(=O)c4c3)CC2C1` (centres unmarked) [A-844606, 2-(5-methyl-hexahydro-pyrrolo[3,4-c]pyrrol-2-yl)-xanthene-9-one], the IC50 (in general, the concentration that inhibits the measured activity by half) in test [1] is 11 nM. Further, in test [2], the “% Injected dose/g tissue, Blood” value amounted to 0.91±0.10 % Injected dose/g tissue; the “% Injected dose/g tissue, Cerebellum” value is 3.62±0.10 % Injected dose/g tissue; the “% Injected dose/g tissue, Cerebral cortex” value is 4.78±0.19 % Injected dose/g tissue; the “% Injected dose/g tissue, Hippocampus” value was 4.20±0.55 % Injected dose/g tissue. In addition, in test [2], the “% Injected dose/g tissue, Hypothalamus” value is reported as 3.50±0.87 % Injected dose/g tissue; the “% Injected dose/g tissue, Medulla oblongata” value is reported as 4.04±0.19 % Injected dose/g tissue; the “% Injected dose/g tissue, Midbrain” value amounted to 4.29±0.11 % Injected dose/g tissue; the “% Injected dose/g tissue, Striatum” value worked out at 3.94±0.89 % Injected dose/g tissue. For the same compound, in test [2], the “% Injected dose/g tissue, Whole brain” value is recorded as 4.27±0.18 % Injected dose/g tissue. For the same compound, the 50% inhibitory concentration (IC50) in test [3] is above 30000 nM.

The values above are taken from article PMC2813863, “In Vivo Evaluation of α7 Nicotinic Acetylcholine Receptor Agonists [^11C]A-582941 and [^11C]A-844606 in Mice and Conscious Monkeys” (PLoS ONE, 2010).
